Values after ≈ are worked out from the molar mass of the structure shown. Active and inactive are the calls of the source. No cut-off for these calls is given here.
Key:
Staphylococcus aureus [1] = experiment: Antibacterial activity against drug-resistant Staphylococcus aureus S18713 by gradient plate test; type: functional
Plasmodium berghei [2] = experiment: Antimalarial activity against Plasmodium berghei infected in mouse assessed as increase in mean survival days of host at 40 mg/kg, sc administered 72 hrs after infection relative to control; type: functional; details: route subcutaneous
Escherichia coli = experiment: Antibacterial activity against Escherichia coli Vogel by gradient plate test; type: functional
Shigella sonnei = experiment: Antibacterial activity against Shigella sonnei C-10 by gradient plate test; type: functional
Enterococcus faecalis = experiment: Antibacterial activity against Streptococcus faecalis MGH-2 by gradient plate test; type: functional
Plasmodium berghei [3] = experiment: Antimalarial activity against Plasmodium berghei infected in mouse assessed as increase in mean survival days of host at 20 mg/kg, sc administered 72 hrs after infection relative to control; type: functional; details: route subcutaneous
Plasmodium berghei [4] = experiment: Antimalarial activity against Plasmodium berghei infected in mouse assessed as disease cure from parasite infection at 640 mg/kg, sc administered 72 hrs after infection; type: functional, organism-based; design: dose 640 mg/kg
[5] = system: Mycobacterium tuberculosis; experiment: Antibacterial activity against Mycobacterium tuberculosis H37Ra by gradient plate test; type: functional
Plasmodium berghei [6] = experiment: Antimalarial activity against Plasmodium berghei infected in mouse assessed as increase in mean survival days of host at 640 mg/kg, sc administered 72 hrs after infection relative to control; type: functional; details: route subcutaneous
Plasmodium berghei [7] = experiment: Antimalarial activity against Plasmodium berghei infected in mouse assessed as increase in mean survival days of host at 160 mg/kg, sc administered 72 hrs after infection relative to control; type: functional; details: route subcutaneous
Pseudomonas aeruginosa = experiment: Antibacterial activity against Pseudomonas aeruginosa 28 by gradient plate test; type: functional
Staphylococcus aureus [8] = experiment: Antibacterial activity against Staphylococcus aureus UC-96 by gradient plate test; type: functional
Plasmodium gallinaceum [9] = experiment: Antimalarial activity against trophozoite-induced Plasmodium gallinaceum infected in white leghorn chicken assessed as increase in mean survival days of host at 10 mg/kg, sc administered 72 hrs after infection relative to control; type: functional; details: route subcutaneous
Plasmodium berghei [10] = experiment: Antimalarial activity against Plasmodium berghei infected in mouse assessed as disease cure from parasite infection at 20 mg/kg, sc administered 72 hrs after infection; type: functional, organism-based; design: dose 20 mg/kg
Plasmodium berghei [11] = experiment: Antimalarial activity against Plasmodium berghei infected in mouse assessed as increase in mean survival days of host at 2.5 mg/kg, sc administered 72 hrs after infection relative to control; type: functional; details: route subcutaneous
Plasmodium berghei [12] = experiment: Antimalarial activity against Plasmodium berghei infected in mouse assessed as disease cure from parasite infection at 80 mg/kg, sc administered 72 hrs after infection; type: functional, organism-based; design: dose 80 mg/kg
Plasmodium gallinaceum [13] = experiment: Antimalarial activity against trophozoite-induced Plasmodium gallinaceum infected in white leghorn chicken assessed as increase in mean survival days of host at 160 mg/kg, sc administered 72 hrs after infection relative to control; type: functional; details: route subcutaneous
Plasmodium berghei [14] = experiment: Antimalarial activity against chloroquine-resistant Plasmodium berghei assessed as drug resistance; type: functional, organism-based
Plasmodium gallinaceum [15] = experiment: Antimalarial activity against trophozoite-induced Plasmodium gallinaceum infected in white leghorn chicken assessed as disease cure from parasite infection at 320 mg/kg, sc administered 72 hrs after infection; type: functional, organism-based; design: dose 320 mg/kg
Plasmodium berghei [16] = experiment: Antimalarial activity against Plasmodium berghei infected in mouse assessed as increase in mean survival days of host at 10 mg/kg, sc administered 72 hrs after infection relative to control; type: functional; details: route subcutaneous
Plasmodium falciparum [17] = experiment: Antimalarial activity against chloroquine-susceptible, pyrimethamine-resistant Plasmodium falciparum Malayan Camp infected in Aotus trivirgatus owl monkey model assessed as cure from parasite infection at >2.5 mg/kg, po qd for 7 days relative to control; type: functional
Plasmodium gallinaceum [18] = experiment: Antimalarial activity against trophozoite-induced Plasmodium gallinaceum infected in white leghorn chicken assessed as disease cure from parasite infection at 160 mg/kg, sc administered 72 hrs after infection; type: functional, organism-based; design: dose 160 mg/kg
Plasmodium falciparum [19] = experiment: Antimalarial activity against pyrimethamine-sensitive Plasmodium falciparum Vietnam Oak Knoll infected in Aotus trivirgatus owl monkey model assessed as cure from parasite infection at 0.6 mg/kg, po qd for 7 days relative to control; type: functional
Plasmodium berghei [20] = experiment: Antimalarial activity against Plasmodium berghei infected in mouse assessed as increase in mean survival days of host at 1.25 mg/kg, sc administered 72 hrs after infection relative to control; type: functional; details: route subcutaneous
Plasmodium gallinaceum [21] = experiment: Antimalarial activity against trophozoite-induced Plasmodium gallinaceum infected in white leghorn chicken assessed as increase in mean survival days of host at 320 mg/kg, sc administered 72 hrs after infection relative to control; type: functional; details: route subcutaneous
Plasmodium berghei [22] = experiment: Antimalarial activity against Plasmodium berghei infected in mouse assessed as disease cure from parasite infection at 320 mg/kg, sc administered 72 hrs after infection; type: functional, organism-based; design: dose 320 mg/kg
Plasmodium berghei [23] = experiment: Antimalarial activity against trophozoite-induced Plasmodium berghei infected in mouse assessed as daily dose required to suppression of 90% parasite infection administered with diet for 6 days; type: functional
Plasmodium berghei [24] = experiment: Antimalarial activity against Plasmodium berghei infected in mouse assessed as disease cure from parasite infection at 40 mg/kg, sc administered 72 hrs after infection; type: functional, organism-based; design: dose 40 mg/kg
Plasmodium berghei [25] = experiment: Ratio of quinine hydrochloride SD90 to compound SD90 for trophozoite-induced Plasmodium berghei infected in mouse assessed as daily dose required to suppression of 90% parasite infection administered with diet for 6 days; type: functional
Plasmodium berghei [26] = experiment: Antimalarial activity against cycloguanil-resistant Plasmodium berghei assessed as drug resistance; type: functional, organism-based
Plasmodium falciparum [27] = experiment: Antimalarial activity against chloroquine-susceptible, pyrimethamine-resistant Plasmodium falciparum Malayan Camp infected in Aotus trivirgatus owl monkey model assessed as cure from parasite infection at 0.39 to 5 mg/kg, po qd for 7 days relative to control; type: functional; details: dose mg/kg 0.39-5
Plasmodium falciparum [28] = experiment: Antimalarial activity against pyrimethamine-sensitive Plasmodium falciparum Vietnam Oak Knoll infected in Aotus trivirgatus owl monkey model assessed as cure from parasite infection at 0.098 to 1.56 mg/kg, po qd for 7 days relative to control; type: functional; details: dose mg/kg 0.098-1.56
Plasmodium gallinaceum [29] = experiment: Antimalarial activity against trophozoite-induced Plasmodium gallinaceum infected in white leghorn chicken assessed as increase in mean survival days of host at 20 mg/kg, sc administered 72 hrs after infection relative to control; type: functional; details: route subcutaneous
Plasmodium gallinaceum [30] = experiment: Antimalarial activity against trophozoite-induced Plasmodium gallinaceum infected in white leghorn chicken assessed as increase in mean survival days of host at 40 mg/kg, sc administered 72 hrs after infection relative to control; type: functional; details: route subcutaneous
Plasmodium berghei [31] = experiment: Antimalarial activity against Plasmodium berghei infected in mouse assessed as disease cure from parasite infection at 160 mg/kg, sc administered 72 hrs after infection; type: functional, organism-based; design: dose 160 mg/kg
Plasmodium gallinaceum [32] = experiment: Antimalarial activity against sporozoite-induced Plasmodium gallinaceum infected in white leghorn chicken assessed as disease cure from parasite infection at 80 mg/kg, sc administered 72 hrs after infection; type: functional, organism-based; design: dose 80 mg/kg
Plasmodium gallinaceum [33] = experiment: Antimalarial activity against sporozoite-induced Plasmodium gallinaceum infected in white leghorn chicken assessed as disease cure from parasite infection at 160 mg/kg, sc administered 72 hrs after infection; type: functional, organism-based; design: dose 160 mg/kg
Plasmodium gallinaceum [34] = experiment: Antimalarial activity against sporozoite-induced Plasmodium gallinaceum infected in white leghorn chicken assessed as disease cure from parasite infection at 320 mg/kg, sc administered 72 hrs after infection; type: functional, organism-based; design: dose 320 mg/kg
Plasmodium gallinaceum [35] = experiment: Antimalarial activity against trophozoite-induced Plasmodium gallinaceum infected in white leghorn chicken assessed as increase in mean survival days of host at 80 mg/kg, sc administered 72 hrs after infection relative to control; type: functional; details: route subcutaneous
Plasmodium berghei [36] = experiment: Antimalarial activity against Plasmodium berghei infected in mouse assessed as increase in mean survival days of host at 5 mg/kg, sc administered 72 hrs after infection relative to control; type: functional; details: route subcutaneous
Plasmodium gallinaceum [37] = experiment: Antimalarial activity against trophozoite-induced Plasmodium gallinaceum infected in white leghorn chicken assessed as increase in mean survival days of host at 5 mg/kg, sc administered 72 hrs after infection relative to control; type: functional; details: route subcutaneous
Plasmodium gallinaceum [38] = experiment: Antimalarial activity against trophozoite-induced Plasmodium gallinaceum infected in white leghorn chicken assessed as increase in mean survival days of host at 0.63 mg/kg, sc administered 72 hrs after infection relative to control; type: functional; details: route subcutaneous
Plasmodium gallinaceum [39] = experiment: Antimalarial activity against sporozoite-induced Plasmodium gallinaceum infected in white leghorn chicken assessed as disease cure from parasite infection at 40 mg/kg, sc administered 72 hrs after infection; type: functional, organism-based; design: dose 40 mg/kg
Plasmodium berghei [40] = experiment: Antimalarial activity against Plasmodium berghei infected in mouse assessed as disease cure from parasite infection at 10 mg/kg, sc administered 72 hrs after infection; type: functional, organism-based; design: dose 10 mg/kg
Plasmodium gallinaceum [41] = experiment: Antimalarial activity against sporozoite-induced Plasmodium gallinaceum infected in white leghorn chicken assessed as disease cure from parasite infection at 20 mg/kg, sc administered 72 hrs after infection; type: functional, organism-based; design: dose 20 mg/kg
Plasmodium gallinaceum [42] = experiment: Antimalarial activity against trophozoite-induced Plasmodium gallinaceum infected in white leghorn chicken assessed as disease cure from parasite infection at 80 mg/kg, sc administered 72 hrs after infection; type: functional, organism-based; design: dose 80 mg/kg
Plasmodium gallinaceum [43] = experiment: Antimalarial activity against trophozoite-induced Plasmodium gallinaceum infected in white leghorn chicken assessed as increase in mean survival days of host at 2.5 mg/kg, sc administered 72 hrs after infection relative to control; type: functional; details: route subcutaneous
Plasmodium gallinaceum [44] = experiment: Antimalarial activity against sporozoite-induced Plasmodium gallinaceum infected in white leghorn chicken assessed as disease cure from parasite infection at 10 mg/kg, sc administered 72 hrs after infection; type: functional, organism-based; design: dose 10 mg/kg
Plasmodium gallinaceum [45] = experiment: Antimalarial activity against trophozoite-induced Plasmodium gallinaceum infected in white leghorn chicken assessed as increase in mean survival days of host at 1.25 mg/kg, sc administered 72 hrs after infection relative to control; type: functional; details: route subcutaneous
Plasmodium gallinaceum [46] = experiment: Antimalarial activity against sporozoite-induced Plasmodium gallinaceum infected in white leghorn chicken assessed as increase in mean survival days of host at 10 mg/kg, sc administered 72 hrs after infection relative to control; type: functional; details: route subcutaneous

| Compound | MIC (Staphylococcus aureus [1]) [µg/mL] | MST (Plasmodium berghei [2]) [days] | MIC (Escherichia coli) [µg/mL] | MIC (Shigella sonnei) [µg/mL] | MIC (Enterococcus faecalis) [µg/mL] | MST (Plasmodium berghei [3]) [days] | Activity (Plasmodium berghei [4]) | MIC (Pseudomonas aeruginosa) [µg/mL] | MIC (Staphylococcus aureus [8]) [µg/mL] | MST (Plasmodium gallinaceum [9]) [days] | Activity (Plasmodium berghei [10]) | MST (Plasmodium berghei [11]) [days] | Activity (Plasmodium berghei [12]) | Activity (Plasmodium gallinaceum [15]) | MST (Plasmodium berghei [16]) [days] | Activity (Plasmodium gallinaceum [18]) | MST (Plasmodium berghei [20]) [days] | Activity (Plasmodium berghei [22]) | SD90 (Plasmodium berghei [23]) [mg/kg/day] | Activity (Plasmodium berghei [24]) | also measured |
| --- | --- | --- | --- | --- | --- | --- | --- | --- | --- | --- | --- | --- | --- | --- | --- | --- | --- | --- | --- | --- | --- |
| Nc1nc(N)c2c(Cl)c(Sc3ccccc3)ccc2n1 | < 0.25 | 4.7 | < 0.25 | < 0.25 | < 0.25 | 3.9 | Active | > 25 | < 0.25 | – | – | – | – | – | – | – | – | – | – | – | MIC [5]: 10 µg/mL (≈ 33 µM); MST (Plasmodium berghei [6]): 9.9 days; MST (Plasmodium berghei [7]): 13.9 days |
| Nc1nc(N)c2cc(Sc3ccc4ccccc4c3)ccc2n1 | < 0.25 | – | < 0.25 | 2.5 (≈ 7.85 µM) | < 0.25 | – | Active | > 25 | < 0.25 | 6.2 | Active | 5.3 | Active | Active | 11.3 | Active | 2.9 | Active | 0.08 | Active | MST (Plasmodium gallinaceum [13]): 15 days; Activity (Plasmodium berghei [14]): inactive; Activity (Plasmodium falciparum [17]): >50%; Activity (Plasmodium falciparum [19]): >50%; MST (Plasmodium gallinaceum [21]): 16 days; Ratio (Plasmodium berghei [25]): 880; Activity (Plasmodium berghei [26]): Active; Activity (Plasmodium falciparum [27]): >50%; Activity (Plasmodium falciparum [28]): >50%; MST (Plasmodium gallinaceum [29]): 7.8 days; MST (Plasmodium gallinaceum [30]): 12.4 days; Activity (Plasmodium berghei [31]): Active; Activity (Plasmodium gallinaceum [32]): Active; Activity (Plasmodium gallinaceum [33]): Active; Activity (Plasmodium gallinaceum [34]): Active; MST (Plasmodium gallinaceum [35]): 16.2 days; MST (Plasmodium berghei [36]): 6.5 days |
| Cc1ccc(Cl)cc1Sc1ccc2nc(N)nc(N)c2c1 | < 0.25 | 25.7 | < 0.25 | 1.5 (≈ 4.73 µM) | < 0.25 | 17.8 | Active | > 25 | < 0.25 | 5.8 | Active | 4.1 | Active | Active | 8.8 | Active | 2.7 | Active | 0.43 | Active | MST (Plasmodium gallinaceum [37]): 3.6 days; MST (Plasmodium gallinaceum [38]): 0 days; Activity (Plasmodium gallinaceum [39]): Active; Activity (Plasmodium berghei [40]): Active; Ratio (Plasmodium berghei [25]): 170; Activity (Plasmodium gallinaceum [41]): Active; MST (Plasmodium gallinaceum [29]): 7.4 days; Activity (Plasmodium gallinaceum [42]): Active; MST (Plasmodium gallinaceum [30]): 7.8 days; MST (Plasmodium gallinaceum [43]): 1.4 days; Activity (Plasmodium gallinaceum [44]): Active; Activity (Plasmodium berghei [31]): Active; MST (Plasmodium gallinaceum [45]): 0 days; Activity (Plasmodium gallinaceum [32]): Active; Activity (Plasmodium gallinaceum [33]): Active; Activity (Plasmodium gallinaceum [34]): Active; MST (Plasmodium gallinaceum [35]): 18 days; MST (Plasmodium berghei [36]): 9.5 days; MST (Plasmodium gallinaceum [46]): 7 days |

Reference: ChEMBL document CHEMBL3272271, “Folate antagonists. 13. 2,4-Diamino-6-](alpha,alpha,alpha-trifluoro-m-tolyl)thio]quinazoline and related 2,4-diamino-6-[(phenyl- and naphthyl)thio]quinazolines, a unique class of antimetabolites with extraordinary antimalarial and antibacterial effects” (J Med Chem, 1978)
